Laboratory results published in patent US20260014146A1, “CDK2 INHIBITORS AND METHODS OF USING THE SAME” (Cedilla Therapeutics, Inc., priority 2022, published 2026).
pIC50: −log10 of the molar value.

Key:
[1] = system: Kuramochi cells labeled with mApple-H2B; test: IncuCyte cell proliferation assay; format: cell-based; conditions: Kuramochi RB-WT, cell count 0 to 72 hours; method calls it GI50
Outline: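 mApple-H2B-labelled Kuramochi cells were treated with compound (10-point, half-log dilutions, 20 μM top) and fluorescent nuclei counted by imaging at 0 and 72 h. Fold change in count was normalized to DMSO wells and fitted to dose-response curves to give GI50.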

[2] = target: CDK2/Cyclin E1 (Homo sapiens (Human), UniProt P24941); test: ADP-Glo Luminescent Kinase Assay, ADPGLO (CDK2/E1-37C); format: biochemical; conditions: 0.18 nM CDK2/Cyclin E1, 100 μM ATP, 1.5 μM Histone H1, 37° C.; read-out: Pharmaron ADPGLO (CDK2/E1-37C): IC50
Method: Inhibition of CDK2/Cyclin E1 activity by the presence of small molecules was evaluated using ADP-Glo Luminescent Kinase Assay (Promega). Activated CDK2/Cyclin E1 was incubated with its substrate Histone H1 (SignalChem H10-54N) in the kinase reaction buffer (100 μM ATP, 50 mM HEPES pH 7.5, 10 mM MgCl2, 1 mM EDTA, 2 mM DTT, 0.01% Brij35, 0.5 mg/mL BSA). Luminescence was recorded with an Envision plate reader (PerkinElmer).
Dose titrations of inhibitors in 100% DMSO were combined with 0.36 nM CDK2/Cyclin E1 in reaction buffer. The mixtures were incubated for 60 minutes at 37° C. before the addition of ATP and Histone H1 substrate to initiate the kinase reaction. The final conditions were 0.18 nM CDK2/Cyclin E1, 100 μM ATP, and 1.5 μM Histone H1. The reactions were incubated at 37° C. for 90 minutes before being stopped with the addition of ADP-Glo reagent. This mixture was incubated at room temperature for 60 minutes before Kinase Detection Solution is added to generate luminescence. The stopped reactions were analyzed on an Envision plate reader. The conversion ratios were normalized to yield % activity, plotted against compound concentration, and fit to a four-parameter equation to determine the IC50 for each compound.

pIC50 [2]	Compound	pIC50 [1]
5.00 to 5.30	C[C@@H](OCC12CCC(CC1)OC2)[C@H](NC(=O)[C@@H]1CN(c2cc(F)cc3ncsc23)CC12CN(C(=O)C1(C(F)(F)F)CC1)C2)C(=O)NS(=O)(=O)c1ccc(F)cc1F [Compound I-51, (S)-N-((2S,3R)-3-(2-oxabicyclo[2.2.2]octan-4-ylmethoxy)-1-(2,4-difluorophenylsulfonamido)-1-oxobutan-2-yl)-6-(5-fluorobenzo[d]thiazol-7-yl)-2-(1-(trifluoromethyl)cyclopropanecarbonyl)-2,6-diazaspiro[3.4]octane-8-carboxamide]	< 4.70
< 5.00	C[C@@H](OCC12CCC(CC1)OC2)[C@H](NC(=O)[C@@H]1CN(c2cccc3nc(O)cnc23)CC12CN(C(=O)C1(C(F)(F)F)CC1)C2)C(=O)N1CCC(c2nccs2)CC1 [Compound I-45, (S)-N-((2S,3R)-3-((2-oxabicyclo[2.2.2]octan-4-yl)methoxy)-1-oxo-1-(4-(thiazol-2-yl)piperidin-1-yl)butan-2-yl)-6-(2-hydroxyquinoxalin-5-yl)-2-(1-(trifluoromethyl)cyclopropane-1-carbonyl)-2,6-diazaspiro[3.4]octane-8-carboxamide]	< 4.70
5.00 to 5.30	COc1ccc(S(=O)(=O)NC(=O)[C@@H](NC(=O)[C@@H]2CN(c3cc(F)cc4ncsc34)CC23CN(C(=O)C2(C(F)(F)F)CC2)C3)[C@@H](C)OCC23CCC(CC2)OC3)cc1 [Compound I-50, (S)-N-((2S,3R)-3-((2-oxabicyclo[2.2.2]octan-4-yl)methoxy)-1-((4-methoxyphenyl)sulfonamido)-1-oxobutan-2-yl)-6-(5-fluorobenzo[d]thiazol-7-yl)-2-(1-(trifluoromethyl)cyclopropane-1-carbonyl)-2,6-diazaspiro[3.4]octane-8-carboxamide]	< 4.70
5.30 to 6.30	C[C@@H](OCC12CCC(CC1)OC2)[C@H](NC(=O)[C@@H]1CN(c2cc(F)cc3nccnc23)CC12CN(C(=O)C1(C(F)(F)F)CC1)C2)C(=O)N1CCC(c2nccs2)CC1 [Compound I-44, (S)-N-((2S,3R)-3-(2-oxabicyclo[2.2.2]octan-4-ylmethoxy)-1-oxo-1-(4-(thiazol-2-yl)piperidin-1-yl)butan-2-yl)-6-(7-fluoroquinoxalin-5-yl)-2-(1-(trifluoromethyl)cyclopropanecarbonyl)-2,6-diazaspiro[3.4]octane-8-carboxamide]	< 4.70

Compound	pIC50 [2]	pIC50 [1]
C[C@@H](OCC12CCC(CC1)OC2)[C@@H](COc1ccccc1C(=O)O)NC(=O)[C@@H]1CN(c2cc(F)cc3ncsc23)CC12CN(C(=O)C1(C(F)(F)F)CC1)C2 [Compound I-49, 2-((2R,3R)-3-((2-oxabicyclo[2.2.2]octan-4-yl)methoxy)-2-((S)-6-(5-fluorobenzo[d]thiazol-7-yl)-2-(1-(trifluoromethyl)cyclopropane-1-carbonyl)-2,6-diazaspiro[3.4]octane-8-carboxamido)butoxy)benzoic acid]	< 5.00	< 4.70
C[C@@H](OCC12CCC(CC1)OC2)[C@@H](COC1CCC(c2ccccc2C(=O)O)CC1)NC(=O)[C@@H]1CN(c2cc(F)cc3ncsc23)CC12CN(C(=O)C1(C(F)(F)F)CC1)C2 (stereo partly drawn) [Compound I-53, 2-(4-((2R,3R)-3-(2-oxabicyclo[2.2.2]octan-4-ylmethoxy)-2-((S)-6-(5-fluorobenzo[d]thiazol-7-yl)-2-(1-(trifluoromethyl)cyclopropanecarbonyl)-2,6-diazaspiro[3.4]octane-8-carboxamido)butoxy)cyclohexyl)benzoic acid]	< 5.00	< 4.70
